Square brackets hold non-standard residues; d marks the D form. Peptide text beside a SMILES is read from it. pGlu = O=C1CC[C@@H](C(=O)O)N1
Key:
Rattus norvegicus [1] = test: Induction of LH release in immature rat administered as infusion relative to LH-RH; format: functional
Rattus norvegicus [2] = test: Induction of FSH release in immature rat administered as infusion relative to LH-RH; format: functional
[3] = test system: Gonadotropin-releasing hormone receptor; test: Agonist activity at LH-RH receptor (unknown origin) relative to LH-RH
[4] = target: Gonadotropin-releasing hormone receptor (Rattus norvegicus) (UniProt P30969); test: Agonist activity at LH-RH receptor in rat pituitary gland assessed as change in FSH secretion at 100000 ng/ml
[5] = target: Gonadotropin-releasing hormone receptor (Rattus norvegicus) (UniProt P30969); test: Antagonist activity at LH-RH receptor in rat pituitary gland assessed as inhibition of LH-RH-induced FSH release
[6] = Retardation factor of the compound using EtOAc-pyridine-AcOH-H2O at ratio of 5:5:1:3 as solvent system by thin layer chromatography; format: physicochemical
[7] = Retardation factor of the compound using EtOH-H2O at ratio of 7:3 as solvent system by thin layer chromatography; format: physicochemical
[8] = Retardation factor of the compound using CHCl3-MeOH-concentrated NH4OH as solvent system by thin layer chromatography; format: physicochemical
[9] = target: Gonadotropin-releasing hormone receptor (Rattus norvegicus) (UniProt P30969); test: Antagonist activity at LH-RH receptor in rat pituitary gland assessed as inhibition of LH-RH-induced FSH release by measuring change in FSH level in medium at 10000 ng/ml
[10] = Retardation factor of the compound using 2-propanol-1N AcOH at ratio of 2:1 as solvent system by thin layer chromatography; format: physicochemical
[11] = target: Gonadotropin-releasing hormone receptor (Rattus norvegicus) (UniProt P30969); test: Antagonist activity at LH-RH receptor in rat pituitary gland assessed as inhibition of LH-RH-induced luteinizing hormone release by measuring change in LH level in medium at 1000 ng/ml
[12] = target: Gonadotropin-releasing hormone receptor (Rattus norvegicus) (UniProt P30969); test: Agonist activity at LH-RH receptor in rat pituitary gland assessed as change in luteinizing hormone secretion at 100000 ng/ml
[13] = target: Gonadotropin-releasing hormone receptor (Rattus norvegicus) (UniProt P30969); test: Antagonist activity at LH-RH receptor in rat pituitary gland assessed as inhibition of LH-RH-induced luteinizing hormone release
[14] = Retardation factor of the compound using 1-BuOH-AcOH-EtOAc-H2O at ratio of 1:1:1:1 as solvent system by thin layer chromatography; format: physicochemical
[15] = target: Gonadotropin-releasing hormone receptor (Rattus norvegicus) (UniProt P30969); test: Antagonist activity at LH-RH receptor in rat pituitary gland assessed as inhibition of LH-RH-induced luteinizing hormone release by measuring change in LH level in medium at 10000 ng/ml
[16] = target: Gonadotropin-releasing hormone receptor (Rattus norvegicus) (UniProt P30969); test: Antagonist activity at LH-RH receptor in rat pituitary gland assessed as inhibition of LH-RH-induced FSH release by measuring change in FSH level in medium at 1000 ng/ml
[17] = target: Gonadotropin-releasing hormone receptor (Rattus norvegicus) (UniProt P30969); test: Antagonist activity at LH-RH receptor in rat pituitary gland assessed as inhibition of LH-RH-induced FSH release by measuring change in FSH level in medium at 100000 ng/ml
[18] = target: Gonadotropin-releasing hormone receptor (Rattus norvegicus) (UniProt P30969); test: Antagonist activity at LH-RH receptor in rat pituitary gland assessed as inhibition of LH-RH-induced luteinizing hormone release by measuring change in LH level in medium at 100000 ng/ml
[19] = Retardation factor of the compound using 1-BuOH-pyridine-AcOH-H2O at ratio of 30:20:6:24 as solvent system by thin layer chromatography; format: physicochemical

Gonadotropin-releasing hormone receptor (Rattus norvegicus), sequence (P30969 whole entry, looked up): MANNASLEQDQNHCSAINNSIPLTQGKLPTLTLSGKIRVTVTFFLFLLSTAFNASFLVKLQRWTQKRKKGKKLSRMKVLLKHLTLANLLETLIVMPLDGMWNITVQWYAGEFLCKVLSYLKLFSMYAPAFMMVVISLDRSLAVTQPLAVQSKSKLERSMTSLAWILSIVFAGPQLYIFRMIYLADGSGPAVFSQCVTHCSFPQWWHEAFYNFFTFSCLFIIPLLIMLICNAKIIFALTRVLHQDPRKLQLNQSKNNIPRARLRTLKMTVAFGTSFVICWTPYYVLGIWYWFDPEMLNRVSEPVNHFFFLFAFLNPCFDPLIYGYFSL

With `CCNC(=O)[C@@H]1CCCN1C(=O)[C@H](CCCNC(=N)N)NC(=O)[C@H](CC(C)C)NC(=O)[C@@H](C)NC(=O)[C@H](Cc1ccc(O)cc1)NC(=O)[C@H](CO)NC(=O)[C@H](Cc1c[nH]c2ccccc12)NC(=O)[C@H](Cc1cnc[nH]1)NC(=O)[C@@H]1CCC(=O)N1` the Activity (Rattus norvegicus [1]) was 1600% and the Activity (Rattus norvegicus [2]) was 1200%.

For `CC(C)C[C@H](NC(=O)[C@@H](C)NC(=O)[C@H](Cc1ccc(O)cc1)NC(=O)[C@H](CO)NC(=O)[C@H](Cc1c[nH]c2ccccc12)NC(=O)[C@H](Cc1cnc[nH]1)NC(=O)[C@@H]1CCC(=O)N1)C(=O)N[C@@H](CCCNC(=N)N)C(=O)N1CCC[C@H]1C(=O)NCC(N)=O`, the Activity [3] was 300%.

Work on `CC(C)C[C@H](NC(=O)[C@@H](NC(=O)[C@@H]1CCC(=O)N1)C(C)C)C(=O)N[C@@H](CO)C(=O)N[C@@H](Cc1ccc(O)cc1)C(=O)N[C@H](C)C(=O)N[C@@H](CC(C)C)C(=O)N[C@@H](CCCNC(=N)N)C(=O)N1CCC[C@H]1C(=O)NCC(N)=O` yielded an Activity [4] of 158 ng/mL, an MED [5] of 10 µg/mL and a Rf [6] of 0.71. For the same molecule, the Rf [7] was 0.62, the Rf [8] was 0.58 and the Activity [9] was 1260 ng/mL. The Rf [10] was 0.58, the Activity [11] was 246 ng/mL and the Activity [12] was -9 ng/mL. The MED [13] was 10 µg/mL, the Rf [14] was 0.66 and the Activity [15] was 28 ng/mL. It also gave an Activity [16] of 6170 ng/mL.

Molecule `CC(C)C[C@H](NC(=O)[C@@H](C)NC(=O)[C@H](Cc1ccc(O)cc1)NC(=O)[C@H](CO)NC(=O)[C@@H](NC(=O)[C@@H](NC(=O)[C@@H]1CCC(=O)N1)C(C)C)C(C)C)C(=O)N[C@@H](CCCNC(=N)N)C(=O)N1CCC[C@H]1C(=O)NCC(N)=O` has an Activity [4] of 850 ng/mL, an MED [5] of 100 µg/mL and an Activity [17] of 770 ng/mL. The Rf [6] was 0.7, the Rf [7] was 0.62 and the Rf [8] was 0.53. The Activity [9] was 4810 ng/mL, the Rf [10] was 0.54 and the Activity [12] was 17 ng/mL. The Activity [18] was 35 ng/mL, the MED [13] was 100 µg/mL and the Rf [14] was 0.64. For the same molecule, the Activity [15] was 313 ng/mL.

`CC(C)C[C@H](NC(=O)[C@@H]1CCC(=O)N1)C(=O)N[C@H](C(=O)N[C@@H](CO)C(=O)N[C@@H](Cc1ccc(O)cc1)C(=O)N[C@H](C)C(=O)N[C@@H](CC(C)C)C(=O)N[C@@H](CCCNC(=N)N)C(=O)N1CCC[C@H]1C(=O)NCC(N)=O)C(C)C` showed an Activity [4] of -185 ng/mL, an MED [5] of 100 µg/mL and an Activity [17] of -399 ng/mL. The Rf [6] was 0.71, the Rf [7] was 0.62 and the Rf [8] was 0.58. It also gave an Activity [9] of 3770 ng/mL, a Rf [10] of 0.57 and an Activity [12] of -37 ng/mL. For the same molecule, the Activity [18] was 13 ng/mL, the MED [13] was 100 µg/mL and the Rf [14] was 0.66. For the same molecule, the Activity [15] was 150 ng/mL.

Work on `CC(C)C[C@H](NC(=O)CNC(=O)[C@H](Cc1ccc(O)cc1)NC(=O)[C@H](CO)NC(=O)[C@H](Cc1c[nH]c2ccccc12)NC(=O)[C@@H]1CCC(=O)N1)C(=O)N[C@@H](CCCNC(=N)N)C(=O)N1CCC[C@H]1C(=O)NCC(N)=O` ([pGlu]WSYGLRPG-NH2) yielded an MED [5] of 30 µg/mL and an MED [13] of 30 µg/mL.

Molecule `CC(C)C[C@H](NC(=O)CNC(=O)[C@H](Cc1ccc(O)cc1)NC(=O)[C@H](CO)NC(=O)[C@H](CC(C)C)NC(=O)[C@H](CC(C)C)NC(=O)[C@@H]1CCC(=O)N1)C(=O)N[C@@H](CCCNC(=N)N)C(=O)N1CCC[C@H]1C(=O)NCC(N)=O` ([pGlu]LLSYGLRPG-NH2) has an MED [5] of 100 µg/mL and an MED [13] of 100 µg/mL.

With `CC(C)C[C@H](NC(=O)[C@@H]1CCC(=O)N1)C(=O)N[C@@H](CC(C)C)C(=O)N[C@@H](CO)C(=O)N[C@@H](Cc1ccc(O)cc1)C(=O)N[C@H](C)C(=O)N[C@@H](CC(C)C)C(=O)N[C@@H](CCCNC(=N)N)C(=O)N1CCC[C@H]1C(=O)NCC(N)=O` the Activity [4] was 1690 ng/mL, the MED [5] was 10 µg/mL and the Rf [6] was 0.8. It also gave a Rf [7] of 0.63, an Activity [9] of 2700 ng/mL and a Rf [10] of 0.67. The Activity [11] was 460 ng/mL, the Activity [12] was 26 ng/mL and the MED [13] was 10 µg/mL. The Rf [14] was 0.69, the Activity [15] was 3 ng/mL and the Activity [16] was 9280 ng/mL. The Rf [19] was 0.59.

Source: ChEMBL document CHEMBL3272113, “Inhibitors of the luteinizing hormone-releasing hormone based upon modifications in the 2, 3, and 6 positions” (J Med Chem, 1976)
